Assay results reported in ChEMBL document CHEMBL1155390, “Isolation and biological evaluation of 8-epi-malyngamide C from the Floridian marine cyanobacterium Lyngbya majuscula” (J Nat Prod, 2010).
Calls of active or inactive are those of the source. No cut-off for these calls is given here.

Key:
Escherichia coli [1] = assay: Antibacterial activity against Escherichia coli JM109 harboring pSB1075 assessed as cell density at 10 to 1000 uM after 6.5 hrs
Escherichia coli [2] = assay: Inhibition of quorum sensing in Escherichia coli JM109 harboring pSB1075 assessed as suppression of LasR-mediated 3-oxo-C12-HSL signaling at 10 to 1000 uM after 6.5 hrs by reporter gene assay
HT-29 = assay: Cytotoxicity against human HT-29 cells after 48 hrs MTT assay; type: functional, cell-based; details: HT-29, 48 h

| Compound | Activity (Escherichia coli [1]) | Activity (Escherichia coli [2]) | IC50 (HT-29) |
| --- | --- | --- | --- |
| CCCCCCC[C@@H](C/C=C/CCC(=O)NC/C(=C/Cl)[C@]12O[C@H]1[C@H](O)CCC2=O)OC | inactive | Active | 15.4 µM |
| CCCCCCC[C@@H](C/C=C/CCC(=O)NC/C(=C/Cl)[C@]12O[C@H]1[C@@H](O)CCC2=O)OC [MALYNGAMIDE C] | inactive | Active | 5.2 µM |
